The text below walks through data of US5298621A, “Oligopeptide derivatives of ipoxantine endowed with immunomodulating activity and pharmaceutical compositions containing same” (Sigma-Tau Industrie Farmaceutiche Riunite S.p.A., priority 1990, dated 1994).

In one assay the test system is Sarcoma S 180 cells. The assay can be described thus: Protective effect in S 180 Sarcoma-bearing mice. It is filed as in vivo. To be noted: for Dead/total / MST (mean survival time calculated by the median and the first interquartile range): 0.25 mg/kg i.p. from day +1 to day +10; for Weight control (x ± S.E.): 0.25 mg/kg/day i.p. day +1 to +10, in g (unit assumed); for number of surviving animals at the indicated day / animals survived (footnote, end of observation): group of 9, 0.25 mg/kg/day; for animals survived (footnote, end of observation): after day +26. How it is done: Test 4 Assessement of the protective effect of ST 657 and ST 789 in tumor-bearing mice.
Male DBA/2 mice and male CD1 mice (Charles River), both aged 6 weeks, were used.
CD1 mice were inoculated i.p. with 1×10^3 Sarcoma S 180 cells (ATCC, loc. cit.) in 0.1 mL of Hank's medium.
The compounds were adminstered i.p. in sterile saline (0.25 mg/kg/day) from day +1 to day +10 (tumor transplantation at day 0).
Also the body weight of the animals was monitored, from day 0 to day +16 for the L 1210 leukemia-bearing mice, and from day 0 to day +21 for the S 180 sarcoma-bearing mice.
Monitoring of body weight was conducted in order to evaluate the evolution of the neoplastic process. Compounds activity was assessed as Mean Survival Time (MST).

For assay [1], the system named is rat granulocytes. The assay can be described thus: "In vitro" chemotactic activity of rat granulocytes (modified Boyden chamber). Format: cell-based. Conditions: for "in vitro" chemotaxis (μ ± S.E.): 10 mcg/mL, granulocytes of untreated rats; for chemotactic activity of rat granulocytes versus the control (in words): in vitro and in vitro-ex vivo. How it is done: (§1) Test 3 Assessment of the "in vitro" and "in vitro-ex vivo" effect of ST 657 and ST 789 on the chemotactic activity of rat granulocytes.
(§2) Male Fisher-344 rats aged about 3 months were used (6-8 animals for each experimental group).
(§3) The compounds were tested "in vitro", 10 mcg/mL, and "in vitro-ex vivo" following administration of 25 mg/kg/day from day -5 to day -1 (taking of blood sample at day 0).
(§4) The experimental procedure is described by Cates, L. K. et al (1987), Modified Boyden chamber method of measuring polymorphonuclear leukocyte chemotaxis, Leukocyte Chemotaxis, Raven Press, N.Y. 67.
(§5) Blood samples were collected from animals sacrificed by decapitation. Following passage through heparinized gauze, blood was diluted (1:1) with dextran (1.5% in saline) and allowed to sediment for 90 minutes.
The concentration of the granulocytes, collected from blood via known techniques, was adjusted to 2×10^6 cells/mL in Hank's medium. They were then seeded on 3 μMillipore filters which were placed in migration chambers.
These chambers were prepared using Hank's medium to evaluate the spontaneous migration, and casein (2 mL of solution, at the concentration 5 mg/mL) to evaluate the induced migration.
In performing the "in vitro" test, granulocytes of untreated animals were used, to which the compounds had been added before seeding thereof on the Millipore filters preparation of migration chambers.
Following incubation of the samples at 37° C. and 5% CO2 for 60 minutes, the filters were stained and mounted on microscope slides.
Microscopic examination of samples versus control allows the distance (in μm) run by the two most forward granulocytes in the framed field to be determined. Granulocyte migration is determined by calculating the mean value of 10 readings performed as a whole on two filters per sample.
The results obtained were statistically processed with Student's "t" test (Biostatistics in Pharmacology, loc, cit.).

Assay [2] deals with plaque-forming cells (PFC) in the spleen of SRBC-immunized mice. The assay is described as follows: Primary antibody production (Jerne test) in the spleen of SRBC immunized mice. Format: in vivo. How it is done:
Test 1 Assessment of the effect of ST 657 and ST 789 on the primary antibody production (Jerne test) in the spleen of SRBC (Sheep Red Blood Cells) immunized mice.
Male B6 D2 F1 mice (Charles River, Italy) aged 7-8 weeks (6 animals per group) were used. In this test, the animals were examined separately.
The compounds were administered i.p. at the doses of 2.5 and 25 mg/kg (single administration) the same day of immunization (Table 1) or, at the dose of 2.5 mg/kg/day (repeated administrations), at days -2, 0 and +2 (immunization at day 0) (Table 2).
The experimental procedure has been described by Jerne, N.K. et al, Transpl. Rev., 18, 130 (1974). In particular, the animals were immunized by i.p. administrations of a SRBC suspension (1×10^7 cells/mouse in 0.2 mL of sterile saline).
5 days following treatment, the spleens were aseptically excised from the sacrificed animals.
The concentration of the splenocytes obtained from the spleen was adjusted to 1×10^7 cells/mL. Aliquots of 0.1 mL of suspension were mixed with warm agar-Hank's (2 mL) and 10% SRBC in PBS buffer (0.2 mL), seeded in Petri dishes and incubated at 37° C. for 60 minutes (samples tested in triplicates). Following addition of complement (2 mL of guinea pig serum diluted 1:10 in Tris buffer), Petri dishes were further incubated at 37° C. for 30 minutes. In the presence of complement, the antibody-secreting cells of splenocytes extracted from the spleens of SRBC-immunized mice cause a hemolytic reaction. This reaction brings about the formation of lytic plaques in the samples.
The results obtained are expressed as follows: […]
(a) number of plaque-forming cells (PFC) out of 10^6 cells;
(b) number of plaque-forming cells in the whole spleen.
The data obtained are processed with Dunnett's test (Biostatistics in Pharmacology, vol. II, Pergamon Press) to assess the statistical significance of differences recorded between groups of treated and control animals.

The test system of assay [3] is rat granulocytes. The assay can be described thus: "In vitro-ex vivo" chemotactic activity of rat granulocytes. To be noted: 25 mg/kg/day i.p. from day -5 to day -1, blood sample at day 0. The protocol: as §1, §2, §3, §4, §5
The concentration of the granulocytes, collected from blood via known techniques, was adjusted to 2×10^6 cells/mL in Hank's medium. They were then seeded on 3 μMillipore filters which were placed in migration chambers. […]
Microscopic examination of samples versus control allows the distance (in μm) run by the two most forward granulocytes in the framed field to be determined. Granulocyte migration is determined by calculating the mean value of 10 readings performed as a whole on two filters per sample. […]

Another assay concerns Salmonella typhimurium. The assay can be described thus: Protective effect in immunodepressed mice experimentally infected with Salmonella typhimurium. Conditions: Salmonella typhimurium 1 × 10^3 cells. It is filed as in vivo. The source says:
Test 2 Assessment of the protective effect induced by ST 657, ST 733, ST 754 and ST 789 on immunodepressed mice experimentally infected.
Male CD1 mice (Charles River, Italy) of different ages were used: mice aged 6 and 12 weeks infected with Klebsiella and mice aged 7 weeks infected with Salmonella (10 mice per group).
Systemic infection in mice was induced via i.p. inoculum of either a pathogenic strain of Klebsiella (K. pneumoniae) or a pathogenic strain of Salmonella (S. typhimurium), which were able to provoke death of the animals within 5 and 20 days, respectively, following the challenge.
Infective doses prepared from overnight broth cultures corresponding to 1.5×10^5 and 3.5×10^5 live cells of K. pneumoniae, and 1×10^3 live cells of S. typhimurium were suspended in 0.2 mL of 5% gastric mucine and then injected.
The immunosuppressor (cyclophosphamide) was administered i.p. in 0.2 mL of sterile saline, 100 mg/kg, 5 days before the infective challenge.
The compounds were administered i.p., 0.25 and 25 mg/kg/day, from day -5 to day -1 (challenge at day 0).
The results obtained are expressed as % mortality and statistically processed with the Fisher's exact test (Biostatistics in Pharmacology, vol. II, Pergamon Press).

The mark [4] stands for this setting: 25 mg/kg i.p., single administration on the day of immunization.
Where [5] appears, read: 0.25 mg/kg/day i.p. day -5 to -1.
[6] abbreviates: 2,5 mg/kg i.p., single administration on the day of immunization.
[7] abbreviates: 2,5 mg/kg/day i.p. at days -2, 0, +2 (immunization at day 0).

On to `N=C(N)NCCC[C@H](NC(=O)OCCCCCn1cnc2c(=O)[nH]cnc21)C(=O)O` [ST 789, N-5-(ipoxantin-9-yl) pentyloxycarbonylarginine, reference compound], for which the Dead/total in the assay on Sarcoma S 180 cells is recorded as 8/9. In addition, in the assay on Sarcoma S 180 cells, the “MST (mean survival time calculated by the median and the first interquartile range)” value was 22.0 (20.5-≥25.5). The “Weight control (x ± S.E.)” value was determined as 21.8 ± 0.5 in the assay with Sarcoma S 180 cells (Day 0); 22.4 ± 0.5 in the assay on Sarcoma S 180 cells (Day 2); 24.3 ± 0.6 with Sarcoma S 180 cells (Day 4); 25.8 ± 0.7 with Sarcoma S 180 cells (Day 7); 26.9 ± 0.8 in the assay on Sarcoma S 180 cells (Day 9); 29.2 ± 1.2 in the assay with Sarcoma S 180 cells (Day 11). Further, the figures for the “Weight control (x ± S.E.)” value with Sarcoma S 180 cells (Day 14), in the assay on Sarcoma S 180 cells (Day 16) and in the assay on Sarcoma S 180 cells (Day 21) were 33.1 ± 2.0, 34.0 ± 2.0 and 32.8 ± 2.2, respectively. The “number of surviving animals at the indicated day” value in the assay on Sarcoma S 180 cells (Day 21) is given as 5. Moreover, the “animals survived (footnote, end of observation)” value with Sarcoma S 180 cells is recorded as “One”. For the same molecule, the “"in vitro" chemotaxis (μ ± S.E.)” value with rat granulocytes [1] was found to be 38.8 ± 4.47 μ. Further, the “chemotactic activity of rat granulocytes versus the control (in words)” value in the assay with rat granulocytes [1] is “totally inactive”. Besides, in assay [2] (setting [4]), the “PFC/10^6 cells (x and ranges of variation)” value is reported as 339 (318-360) PFC/10^6 cells. Moreover, in assay [2] (setting [4]), the “PFC/spleen (x and ranges of variation)” value is reported as 58137 (54505-62010) PFC/spleen. In addition, the “"in vitro-ex vivo" chemotaxis (μ ± S.E.)” value with rat granulocytes [3] turned out to be 79.8 ± 1.53 μ. Further, the “% Mortality” value stood at 10% in the assay with Salmonella typhimurium (setting [5]) and 20% in the assay on Salmonella typhimurium (25 mg/kg/day i.p. day -5 to -1).

Consider “N-5-(ipoxantin-9-yl) pentyloxycarbonyl glycyl L-aspartate disodium salt [ST 657]”, for which the Dead/total in the assay with Sarcoma S 180 cells was 5/9. Moreover, the “MST (mean survival time calculated by the median and the first interquartile range)” value in the assay with Sarcoma S 180 cells is recorded as 26.0 (20.5-≥47.0). The “Weight control (x ± S.E.)” value came out at 22.2 ± 0.3 in the assay on Sarcoma S 180 cells (Day 0); 22.0 ± 0.6 with Sarcoma S 180 cells (Day 2); 23.9 ± 0.4 in the assay on Sarcoma S 180 cells (Day 4); 26.1 ± 0.4 in the assay on Sarcoma S 180 cells (Day 7); 27.3 ± 0.5 in the assay with Sarcoma S 180 cells (Day 9); 28.6 ± 0.6 with Sarcoma S 180 cells (Day 11). Moreover, the “Weight control (x ± S.E.)” value amounted to 31.2 ± 1.0 in the assay with Sarcoma S 180 cells (Day 14), 31.4 ± 1.1 in the assay with Sarcoma S 180 cells (Day 16) and 32.9 ± 1.0 with Sarcoma S 180 cells (Day 21). Besides, the “number of surviving animals at the indicated day” value with Sarcoma S 180 cells (Day 21) is on record as 6. Further, the “animals survived (footnote, end of observation)” value in the assay on Sarcoma S 180 cells worked out at 4. Further, the “MST / protection in tumor-bearing mice (in words)” value in the assay on Sarcoma S 180 cells (comparison with ST 789, S 180 and L 1210 tables) was “higher MST and/or a better protection than ST 789”. Besides, the “"in vitro" chemotaxis (μ ± S.E.)” value in the assay on rat granulocytes [1] is 54.8 ± 3.05 μ. In addition, the “chemotactic activity of rat granulocytes versus the control (in words)” value in the assay on rat granulocytes [1] is listed as “effective in enhancing the chemotactic activity”. In addition, the “PFC/10^6 cells (x and ranges of variation)” value in assay [2] (setting [4]) is reported as 422 (403-443) PFC/10^6 cells; in assay [2] (setting [6]), 393 (368-420) PFC/10^6 cells; in assay [2] (setting [7]), 416 (372-465) PFC/10^6 cells. In addition, the “PFC/spleen (x and ranges of variation)” value in assay [2] (setting [4]) was 61276 (54294-63323) PFC/spleen; in assay [2] (setting [6]) it was 62356 (59939-64871) PFC/spleen; in assay [2] (setting [7]), 67195 (59781-75529) PFC/spleen. In addition, the “increase of PFC number with respect to control (in words)” value in assay [2] (comparison with ST 789) is reported as “more active than ST 789”. Moreover, the “"in vitro-ex vivo" chemotaxis (μ ± S.E.)” value with rat granulocytes [3] came out at 89.3 ± 1.95 μ. Further, the “% Mortality” value in the assay on Salmonella typhimurium (setting [5]) and in the assay on Salmonella typhimurium (25 mg/kg/day i.p. day -5 to -1) was 0% in each case.
